Assay results taken from publication PMC3878761, “Interactions of peptide triazole thiols with Env gp120 induce irreversible breakdown and inactivation of HIV-1 virions” (Retrovirology, 2013).
“And” between values parts separate entries of the source, which are not always exact repeats. Equal values may be shown once. “Also recorded” adds a separate entry of the source. Read-outs that look alike come from different tables or passages of the source. Starred links: 1 amine or outer side, 2 acyl side, 3 side chain; linkers in the order of their positions; H or OH if unused. Non-standard residues stand in square brackets, D forms with d. Residues, ends and D or L forms follow the SMILES beside them. X1 = O=C([C@@H]1C[C@H](n2cc([C]34[CH]5[CH]6[CH]7[CH]3[Fe]6754389%10[CH]4[CH]3[CH]8[CH]9[CH]4%10)nn2)CN1[*:1])[*:2]; βAla = NCCC(=O)O

Assays:
[1] = tested on: CD4^-ve CCR5^+ve cells; conditions: cited from earlier work
Protocol: The same incubation conditions were used as for inhibition of HIV-1 entry into HOS […] cells.

[2] = tested on: HIV-1 BaL pseudovirus; test: T20 effect on KR13-induced gp120 shedding, BaL; conditions: KR13 1 μM, T20 up to 1 μM, western blot, n = 3
Protocol: (§2) Treated virion samples were fractionated on a 6-20% iodixanol gradient (above). Gradient fractions were quantified for p24 using ELISA, and relative p24 release was quantified and plotted using the Origin Pro.8 (Origin Lab). Collected gradient fractions also were analyzed for gp120 shedding using western blot analysis, with detection using primary antibody D7324 and secondary anti-sheep HRP. The bands of the blot were analyzed using Image J software. The IC50 values were calculated using Origin Pro.8 (Origin Lab).

[3] = tested on: HIV-1 BaL pseudovirus; conditions: KR13 1 μM, T20 dilutions from 1 μM, 30 min at 37°C, p24 ELISA, ± SD, n = 3
Protocol: as §2

[4] = parenteral; cited from earlier work
Description: There is an urgent need for new antiretroviral agents for the prevention and treatment of HIV-1. Most of the currently approved HIV drugs target viral enzymes, in particular reverse transcriptase, protease and integrase. In contrast, the number of anti-HIV drugs targeting the entry process is more limited. The proteins involved in HIV-1 entry include gp120 and gp41 organized as a trimer on the viral envelope spike, and both CD4 and a chemokine receptor, either CCR5 or CXCR4, on the cell surface. The fusion inhibitor enfuvirtide (T20) and the CCR5 inhibitor maraviroc are t ...

[5] = tested on: HIV-1 BaL pseudovirus
[6] = tested on: R5-tropic and X4-tropic HIV-1; set-up: method as in 2 sources, one per row (each row's own in cited_ref): ref 7-9, 12 = [7]; PMID 20518583; doi:10.2165/11203940-000000000-00000; Perry CM Maraviroc: a review of its use in the management of CCR5-tropic HIV-1 infection Drugs 2010 10 9 1189 1213 10.2165/11203940-000000000-00000 20518583 || [8]; PMID 23541872; doi:10.1016/j.antiviral.2013.03.017; Haqqani AA Tilton JC Entry inhibitors and their use in the treatment of HIV-1 infection Antiviral Res 2013 10 2 158 170 10.1016/j.antiviral.2013.03.017 23541872 || [9]; PMID 23290628; doi:10.1016/j.coviro.2012.12.002; Henrich TJ Kuritzkes DR HIV-1 entry inhibitors: recent development and clinical use Curr Opin Virol 2013 10 1 51 57 10.1016/j.coviro.2012.12.002 23290628 PMC4213740 || [12]; PMID 17933722; Emmelkamp JM Rockstroh JK CCR5 antagonists: comparison of efficacy, side effects, pharmacokinetics and interactions–review of the literature Eur J Med Res 2007 10 9 409 417 17933722 ||| ref 34 = [34]; PMID 23470147; doi:10.1021/bi400166b; Emileh A Tuzer F Yeh H Umashankara M Moreira DR Lalonde JM Bewley CA Abrams CF Chaiken IM A model of peptide triazole entry inhibitor binding to HIV-1 gp120 and the mechanism of bridging sheet disrupt; conditions: cited from earlier work
[7] = tested on: HIV-1 BaL pseudovirus; test: p24 release from HIV-1 BaL pseudovirus (ELISA); conditions: ELISA
[8] = tested on: gp41 of HIV-1 BaL pseudovirus (98–6 epitope); test: gp41 content of treated virions, mAb 98-6 western blot; conditions: western blot mAb 98–6, BaL pseudovirus
[9] = tested on: gp41 of HIV-1 BaL pseudovirus (2 F5 epitope); test: exposure of gp41 MPER epitope, 2 F5 ELISA; conditions: fixed BaL pseudovirions, 30 min at 37°C (dose) or 1 μM (time), n = 3
Protocol: (§1) We also measured the presence of gp41 epitopes for human mAb’s 2 F5 and 4E10 using an altered ELISA detection method to minimize virus particle disruption. […] Virus fractions were collected and fixed with equal volume of 0.1% paraformaldehyde for 30 minutes at 4°C. The treated virus fractions were spun at 16,000 X g for 2 hours at 4°C in an Eppendorf table top centrifuge. Following PBS wash, fixed virions were coated on an ELISA plate at 50 μl per well and incubated overnight at 4°C. The plate was blocked with 3% BSA, and ELISA was used to detect gp41 epitopes with human gp41 antibodies 2 F5 and 4E10 followed by addition of anti-human IgG HRP secondary antibody.

[10] = target: T1, HIV-1 YU2 gp120 (Human immunodeficiency virus type 1 group M subtype B, UniProt P35961); test: SPR direct binding to immobilized YU2 gp120; conditions: immobilized YU2 gp120, PBS + 0.005% Tween 20, pH 7.2, 25°C
T1 construct: made in house; host or cells: 293F cells
Protocol: (Additional file 1: Figure S2). […] Direct binding of the peptide triazole to sensor chip immobilized HIV-1 YU2 gp120 was measured as previously described using Surface Plasmon Resonance (SPR) with a Biacore 3000 optical biosensor (GE Healthcare). […] The cell viability was measured using the tetrazolium salt premix reagent, WST-1 from Takara Bio Inc. following the manufacturer’s protocol. The formazan product was measured using the microplate reader at absorbance wavelength 460 nm (Molecular Devices).

[11] = tested on: fully infectious HIV-1 BaL virions; test: gp120 shedding from fully infectious HIV-1 BaL; conditions: read-out: gp120 shedding IC50 (*, fully infectious), 30 min at 37°C, western blot, ± SD
Protocol: (§3) The replication competent virions were assayed for peptide triazole-induced inhibition of infection, gp120 shedding and p24 release in a BSL-2 facility. Gradient purification of the viruses and p24 release assays were performed as with pseudoviruses (described in Materials and Methods above). Cell infection by virus and its inhibition by peptide triazoles were tested using a modified version of a previously reported p24 ELISA assay [60]. The p24 release assays as well as detection of gp120 shedding were conducted as with the BaL pseudovirions (described in Materials and Methods above).
(§4) Virions were purified using 6-20% iodixanol gradient and p24 content measured using ELISA. […] HOS CD4^+ve CCR5^+ve cells seeded, at 8,000 cells per well in a 96 well plate, were incubated for 24 hours followed by addition of pre-incubated inhibitor-virus mixture. […] Further, the peptide triazole and cell-free virus were pre-incubated for 30 min at 37°C followed by spinning for 2 hours at 13,600 rpm in a table top centrifuge (Eppendorf) at 4°C. Supernatant was separated and p24 content determined using the p24 capture ELISA (explained in the main Materials and Methods section) and gp120 using western blot analysis (explained in the Supplementary Text above).

[12] = tested on: HIV-1 BaL pseudovirus; test: gp120 shedding from HIV-1 BaL pseudovirus (western blot)
[13] = tested on: fully infectious HIV-1 BaL virions; conditions: upto 200 µM, n = 3
Protocol: as §3, §4

[14] = tested on: gp41 of HIV-1 BaL pseudovirus (4E10 epitope); test: exposure of gp41 MPER epitope, 4E10 ELISA; conditions: fixed BaL pseudovirions, 30 min at 37°C (dose) or 1 μM (time), n = 3
Protocol: as §1

[15] = target: T2, 17b binding to plate-immobilized YU2 gp120 (Human immunodeficiency virus type 1 group M subtype B, UniProt P35961); test: competition ELISA, mAb 17b binding to gp120; set-up: species or system HIV-1; conditions: m17b binding to plate-immobilized gp120, ± SD, n > 3
T2 construct: made in house; host or cells: 293F cells

[16] = target: T3, sCD4 binding to plate-immobilized YU2 gp120 (Human immunodeficiency virus type 1 group M subtype B, UniProt P35961); test: competition ELISA, sCD4 binding to gp120; set-up: species or system HIV-1; conditions: ± SD, n > 3
T3 construct: made in house; host or cells: 293F cells

[17] = target: HIV-1 BaL Env gp120 on virions (HIV-1 BaL)

Molecule: CC1(C)CC(NC(=O)C(=O)Nc2ccc(Cl)cc2)CC(C)(C)N1 [NBD-556]
- activation of infection, CD4^-ve CCR5^+ve cells (NBD-556) [1]: can activate infection in CD4^-ve CCR5^+ve cells

Molecule: enfuvirtide
- effect of T20 on KR13-induced gp120 shedding [2]: did not affect gp120 shedding caused by KR13; also recorded: No significant effect on the gp120 release
- IC50 [3]: 15 nM and 15.9 nM
- adverse reactions at sites of injection [4]: adverse reactions at sites of injection are common
- IC50 ([5]; read-out: IC50, infection inhibition, BaL (Figure S9), Figure S9, ± SD, n = 3): 34.5 ± 1.2 nM

Molecule: Maraviroc [reference compound]
- antiviral tropism [6]: blocks R5-tropic but not X4-tropic HIV-1

Molecule: CC[C@H](C)[C@H](NC(=O)[C@@H](N)CCCNC(=N)N)C(=O)N[C@@H](CC(N)=O)C(=O)N[C@@H](CC(N)=O)C(=O)N[C@H](C(=O)N1C[C@@H](n2cc([C]34[CH]5[CH]6[CH]7[CH]3[Fe]6754389%10[CH]4[CH]3[CH]8[CH]9[CH]4%10)nn2)C[C@H]1C(=O)N[C@@H](Cc1c[nH]c2ccccc12)C(=O)N[C@@H](CO)C(=O)N[C@@H](CCC(=O)O)C(=O)N[C@@H](C)C(=O)N[C@@H](CCSC)C(=O)N[C@@H](CCSC)C(N)=O)[C@@H](C)CC (stereo partly shown) [HNG156]
- p24 release, in words [7]: neither of these peptides caused p24 release
- gp41 retention / 98–6 detection [8]: gp41 remained associated with virions
- reactivity to 2 F5 [9]: MPER epitopes were poorly exposed
- kinetics of infectivity inhibition versus gp120 shedding ([5]; KR13 1 μM or HNG156 100 μM, 1 min to 24 hours, 37°C): infectivity inhibition and gp120 shedding had similar kinetics
- SPR direct binding to gp120, in words [10]: bound to gp120
- IC50 [11]: 1800 nM
- gp120 shedding, in words [12]: caused gp120 shedding; also recorded: induced only gp120 shedding
- p24 release, fully infectious, in words [13]: No p24 release was observed
- reactivity to 4E10 [14]: MPER epitopes were poorly exposed

Molecule: CC[C@H](C)[C@H](NC(=O)[C@@H](N)CCCNC(=N)N)C(=O)N[C@@H](CC(N)=O)C(=O)N[C@@H](CC(N)=O)C(=O)N[C@H](C(=O)N1C[C@@H](n2cc([C]34[CH]5[CH]6[CH]7[CH]3[Fe]6754389%10[CH]4[CH]3[CH]8[CH]9[CH]4%10)nn2)C[C@H]1C(=O)N[C@@H](Cc1c[nH]c2ccccc12)C(=O)N[C@@H](CO)C(=O)N[C@@H](CCC(=O)O)C(=O)N[C@@H](C)C(=O)N[C@@H](CCSC)C(=O)N[C@@H](CCSC)C(=O)NCCC(=O)N[C@@H](CCC(N)=O)C(=O)NCCC(=O)N[C@@H](CSCNC(C)=O)C(N)=O)[C@@H](C)CC (stereo partly shown) [KR13b]
- p24 release, in words [7]: neither of these peptides caused p24 release
- SPR direct binding to gp120, in words [10]: bound to gp120
- gp120 shedding, in words [12]: caused gp120 shedding; also recorded: induced only gp120 shedding

Molecule: CC[C@H](C)[C@H](NC(=O)[C@H](CC(N)=O)NC(=O)[C@H](CC(N)=O)NC(=O)[C@@H](NC(=O)[C@@H](N)CCCNC(=N)N)[C@@H](C)CC)C(=O)N[C@@H](Cc1c[nH]c2ccccc12)C(=O)N1C[C@@H](n2cc([C]34[CH]5[CH]6[CH]7[CH]3[Fe]6754389%10[CH]4[CH]3[CH]8[CH]9[CH]4%10)nn2)C[C@H]1C(=O)N[C@@H](CO)C(=O)N[C@@H](CCC(=O)O)C(=O)N[C@@H](C)C(=O)N[C@@H](CCSC)C(=O)N[C@@H](CCSC)C(=O)NCCC(=O)N[C@@H](CCC(N)=O)C(=O)NCCC(=O)N[C@@H](CS)C(N)=O (stereo partly shown) [KR13s] (H-RINNIW[X1]SEAMM[βAla]Q[βAla]C-NH2; N-terminus assumed)
- IC50, 17b competition [15]: undetected
- inhibition of infection, in words ([5]; single round infection assay): inactive
- SPR direct binding to gp120, in words [10]: low and inconsistent dose dependent signals
- gp120 shedding, in words [12]: not the KR13s control, caused gp120 shedding
- IC50, sCD4 competition [16]: undetected

Molecule: KR13b (KR13 with the thiol blocked with an acetamidomethyl (ACM) group) (peptide)
- gp120 shedding from HIV-1 BaL pseudovirus (western blot), IC50 [17]: 120 nM
- inhibition of cell infection (viral inactivation), HIV-1 BaL pseudovirus, EC50 [17]: 52 nM
